Measured values taken from patent US20250009901A1, “COMPOSITION COMPRISING A COMBINATION OF IMMUNE CHECKPOINT INHIBITOR AND ANTIBODY-AMATOXIN CONJUGATE FOR USE IN CANCER THERAPY” (Heidelberg Pharma Research GmbH, priority 2020, published 2025).

What was measured:
[1] = test system: CD79b-positive cell line BJAB; experiment: Calreticulin measurement (ICD marker), flow cytometry; type: cell-based, human; settings: Amanitin 100 nM, conjugates 50 nM antibody, 24, 48, 72 h post-treatment, vs media only
Procedure: (§1) The Her2-positive cell line BT474 is a human breast cancer cell line. The CD79b-positive cell line BJAB is a human Burkitt lymphoma-derived B cell line.
(§2) Cells of the Her2-positive cell line BT474 and of the CD79b-positive cell line BJAB, respectively, were plated at 8×10^4 cells per well in 100 μL of media. Flat bottom or U-bottom plates were used for BT474 or BJAB cells, respectively. The following day, media was changed. […] Then, cells were treated with media alone, Maytansine (100 nM), Amanitin (100 nM), Anti-HER2-Amanitin conjugate (50 nM antibody), or Anti-CD79b-Amanitin conjugate (50 nM antibody) for 16-72 h.
(§3) Cells were assayed at 24, 48, and 72 h post-treatment. The adherent BT474 cells were lifted with a solution of highly purified, recombinant cell-dissociation enzymes (TrypLE, Thermo-Fisher) for 2 min. at 37° C. Both BT474 and BJAB cells were washed with PBS/2% FBS and then fixed in 0.5% paraformaldehyde for 5 min. After washing twice with cold PBS/2% FBS, cells were incubated for 5 min. with an Fc receptor binding inhibitor (FC block, eBioscience), blocking Fc receptor-mediated non-specific binding, followed by 30-min. incubation with Anti-Calreticulin-FITC (Abcam) or isotype control-FITC (Abcam). […] Propidium iodide (PI) was added, and samples were analyzed by flow cytometry on a FACSCanto instrument (Becton-Dickinson) using FACS Diva software.

[2] = test system: Her2-positive cell line BT474; experiment: as above; type: cell-based, human; settings: Amanitin 100 nM, conjugates 50 nM antibody, 24, 48, 72 h post-treatment, vs media only
Procedure: as §1, §2, §3

[3] = test system: CD79b-positive cell line BJAB; experiment: Extracellular ATP measurement (ICD marker); type: cell-based, human; settings: Amanitin 100 nM, conjugates 50 nM antibody, 16, 40, 64 h post-treatment, vs media only
Procedure: as §1, §2
(§4) At 16, 40, and 64 h post-treatment, culture media was transferred to reaction tubes (Eppendorf) and centrifuged gently. Extracellular ATP concentrations were determined by use of the ENLITEN ATP Assay (Promega). Chemiluminescence was measured on a SpectraMax ME chemiluminescence reader (Molecular Devices).

[4] = test system: Her2-positive cell line BT474; experiment: Extracellular ATP measurement (ICD marker); type: cell-based, human; settings: Amanitin 100 nM, conjugates 50 nM antibody, 16, 40, 64 h post-treatment, vs media only
Procedure: as §1, §2, §4

[5] = test system: CD79b-positive cell line BJAB; experiment: Extracellular HMGB1 measurement (ICD marker), ELISA; type: cell-based, human; settings: Amanitin 100 nM, conjugates 50 nM antibody, 24, 48, 72 h post-treatment, vs media only
Procedure: as §1, §2
(§5) Culture media was collected at 24, 48, and 72 h post-treatment. Analytes were captured on a Nunc Maxisorp 96-well plate coated at pH 9 with 1 μg/mL Anti-HMGB1 antibody (clone 1D5, Sigma), and plates were blocked with casein buffer (ThermoFisher). A standard curve was generated using recombinant human HMGB1 protein (R&D Systems) added to culture media that had been incubated at 37° C./5% CO2 for the same number of days as the experimental samples. This step had the effect of normalizing background signals observed in fresh culture media. […] After 30 min, the plate was washed with PBS/0.1% Tween-20, and bound secondary antibody was detected using Ultra TMB (Thermo Fisher); signals were read on a Molecular Devices Spectra Max M5 plate reader. […]

[6] = test system: Her2-positive cell line BT474; experiment: as above; type: cell-based, human; settings: Amanitin 100 nM, conjugates 50 nM antibody, 24, 48, 72 h post-treatment, vs media only
Procedure: as §1, §2, §5

RNA-polymerase II = RNA-polymerase II (Homo sapiens, UniProt P24928); settings: read-out: KD of the complex between amanitin and RNA-polymerase II; cited from earlier work
[7] = test system: CD19-positive Raji cells (human Burkitt lymphoma); experiment: Raji xenograft mouse model with human PBMCs, ATAC and Avelumab (first Example 4, FIG. 5); type: in vivo, mice
Procedure: FIG. 5. Synergistic action of Avelumab and Anti-CD19-Amatoxin conjugate in the presence of peripheral blood mononuclear cells (PBMCs). Results of anti-tumoral studies using anti-PD-L1 antibody Avelumab (20 mg/kg, i.v., days 0, 3, 6, 8, 10, 13), or anti-CD19-amatoxin conjugate (ATAC, 0.1 and 0.3 mg/kg, respectively; single dose i.v. day 0), or a combination of Avelumab (20 mg/kg) and ATAC (0.1 and 0.3 mg/kg, respectively), in vivo in a Raji xenograft mice model system. Tumor volume was assessed at various time points after tumor cell inoculation.
The cytotoxic activity of the combination comprising an ICI and an ATAC has been assessed by use of a tumor mouse model in vivo. The study consisted of 6 experimental groups with 12 animals each. CD19-positive Raji cells (human Burkitt lymphoma, DSMZ) were premixed with human peripheral blood mononuclear cells (PBMCs, German Red Cross) and inoculated subcutaneously on study day 0. […] Tumor volumes were measured twice per week by calliper measurements and body weights were determined in parallel. […]

**Q.** Which “cell surface exposure of calreticulin (CRT)” value [1] does the source give for Amanitin here?
**A.** Its value is “did not induce”.

**Q.** And the “cell surface exposure of calreticulin (CRT)” value [2]?
**A.** Its value is “did not induce”.

**Q.** And the ATP secretion [3]?
**A.** Its ATP secretion is “did not induce”.

**Q.** And the ATP secretion [4]?
**A.** The ATP secretion was “did not induce”.

**Q.** And the HMGB1 release [5]?
**A.** The HMGB1 release was “did not induce”.

**Q.** What about the HMGB1 release [6] of the same substance?
**A.** The HMGB1 release was “did not induce”.

**Q.** What about the Kd (RNA-polymerase II) of the same substance?
**A.** Its Kd is 3 nM.

**Q.** Which results are given for Avelumab: PD-L1-specific antibody?
**A.** Reduction of the tumor volumes as compared to the control group (PBS), single agents compared with each other ([7]; Avelumab 20 mg/kg alone, ATAC 0.1 mg/kg alone): comparable; Mean TV (tumor volume) ([7]; day 31 post tumor cell inoculation, Avelumab 20 mg/kg i.v. days 0, 3, 6, 8, 10, 13): 353.1 mm^3
